The structures appear in SMILES notation. Like-named read-outs stand apart in the source and are kept apart here.

Four compounds from PMC8767159, “Multiparameter Optimization of Trypanocidal Cruzain Inhibitors With In Vivo Activity and Favorable Pharmacokinetics” (Frontiers in Pharmacology, 2022) can be followed below.

For series [1], the system named is T. cruzi intracellular amastigotes. Kind of series: Assay against T. cruzi intracellular amastigotes (Tulahuen lacZ strain in HFF-1 fibroblasts). The class given is cell-based, Trypanosoma cruzi. To be noted: Trypanosoma cruzi, HFF-1, Table 4, mean ± SD of three assays.
The nature of series [2]: Fraction unbound by equilibrium dialysis. To be noted: pH 7.4. The class given is in vitro ADME. Put shortly: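 Test compounds at 1, 2, 20, 200, 2,000 and 5,000 nM in plasma, microsome suspension or buffer with 10% FCS, dialysed against 50 mM potassium phosphate pH 7.4 across a 12–14 kDa membrane, 37°C, 150 rpm, 4 h. Both sides quantified by LC-MS/MS against a standard curve; triplicates.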
(In general: In equilibrium dialysis free small molecules cross a membrane that holds back macromolecules.)

A short description of series [3]: In vitro metabolic stability in mouse liver microsomes. The class given is in vitro ADME. To be noted: mouse, liver microsomes. Put shortly: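 Compounds incubated at 37°C with mouse or human liver microsomes (0.25 mg/ml) in potassium phosphate buffer with NADPH; samples quenched in ACN/MeOH at 0, 5, 10, 15, 20 and 30 min. Parent remaining by LC-MS/MS relative to 0 min; T½ = ln(2)/k, CLint = k*1000/0.25 (μL/min/mg).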

Where [4] appears, read: Table 5, fraction unbound used to correct CLint.
[5] abbreviates: Table 6, fraction unbound used to correct plasma clearance.
Setting [6] is: Table 5, CLint/fu, read-out: CLint_u (L/h/kg) mouse (converted).
Setting [7] is: Table 5, read-out: CLint (L/h/kg) mouse (converted).

`O=C(COc1ccc2ccccc2c1)NCCc1nc2ccccc2[nH]1` [Compound 35]: it took 46.1 ± 6.21 µM to reach half-maximal inhibition in series [1] (IC50). The fraction unbound (commonly the share of the substance not bound to proteins or other matrix) at 4 h, 1 µM stood at 0.5 in series [2] (setting [4]) and 0.02 in series [2] (setting [5]). Besides, the CLint scaled at 5 µM in series [3] (setting [6]) was 1170 L/h/kg; in series [3] (setting [7]) it was 565 L/h/kg.

For `O=C(COc1ccc(NC(=O)CCCO)cc1)NCCc1nc2ccccc2[nH]1` [Compound 5], in series [1], the 50% inhibitory concentration (IC50) (commonly the point on the concentration scale where inhibition reaches its midpoint) was about 50 µM. The fraction unbound at 4 h, 1 µM in series [2] (Table S5, fraction unbound) came out at 0.96. Besides, the CLint scaled at 5 µM is 4.51 L/h/kg in series [3] (Table S5, CLint/fu, read-out: CLint_u (L/h/kg) Mouse (converted)) and 4.43 L/h/kg in series [3] (Table S5, read-out: CLint (L/h/kg) Mouse (converted)).

As for `Cc1ccccc1OCC(=O)NCCc1nc2ccccc2[nH]1` [Compound 17], in series [1], it took 2.81 ± 0.75 µM to reach half-maximal inhibition (IC50). Further, the results for the fraction unbound at 4 h, 1 µM in series [2] (setting [4]) and in series [2] (setting [5]) were 0.8 and 0.06, respectively. For the same compound, the CLint scaled at 5 µM is 392 L/h/kg in series [3] (setting [6]) and 300 L/h/kg in series [3] (setting [7]).

In the case of `O=C(COc1ccccc1[N+](=O)[O-])NCCc1nc2ccccc2[nH]1` [Compound 32], in series [1], it took 7.9 ± 2.13 µM to reach half-maximal inhibition (IC50). Moreover, the fraction unbound at 4 h, 1 µM in series [2] (setting [4]) came out at 0.7; in series [2] (setting [5]), 0.04. For the same compound, the CLint scaled at 5 µM is 808 L/h/kg in series [3] (setting [6]) and 526 L/h/kg in series [3] (setting [7]).
